Entries after “also recorded” stand apart in the source; their conditions may differ.
Molecular target: T1, AR (Homo sapiens, UniProt P10275)
T1 construct: expressed in transfected cells; host or cells: LNCaP
T1 sequence (P10275 1-920): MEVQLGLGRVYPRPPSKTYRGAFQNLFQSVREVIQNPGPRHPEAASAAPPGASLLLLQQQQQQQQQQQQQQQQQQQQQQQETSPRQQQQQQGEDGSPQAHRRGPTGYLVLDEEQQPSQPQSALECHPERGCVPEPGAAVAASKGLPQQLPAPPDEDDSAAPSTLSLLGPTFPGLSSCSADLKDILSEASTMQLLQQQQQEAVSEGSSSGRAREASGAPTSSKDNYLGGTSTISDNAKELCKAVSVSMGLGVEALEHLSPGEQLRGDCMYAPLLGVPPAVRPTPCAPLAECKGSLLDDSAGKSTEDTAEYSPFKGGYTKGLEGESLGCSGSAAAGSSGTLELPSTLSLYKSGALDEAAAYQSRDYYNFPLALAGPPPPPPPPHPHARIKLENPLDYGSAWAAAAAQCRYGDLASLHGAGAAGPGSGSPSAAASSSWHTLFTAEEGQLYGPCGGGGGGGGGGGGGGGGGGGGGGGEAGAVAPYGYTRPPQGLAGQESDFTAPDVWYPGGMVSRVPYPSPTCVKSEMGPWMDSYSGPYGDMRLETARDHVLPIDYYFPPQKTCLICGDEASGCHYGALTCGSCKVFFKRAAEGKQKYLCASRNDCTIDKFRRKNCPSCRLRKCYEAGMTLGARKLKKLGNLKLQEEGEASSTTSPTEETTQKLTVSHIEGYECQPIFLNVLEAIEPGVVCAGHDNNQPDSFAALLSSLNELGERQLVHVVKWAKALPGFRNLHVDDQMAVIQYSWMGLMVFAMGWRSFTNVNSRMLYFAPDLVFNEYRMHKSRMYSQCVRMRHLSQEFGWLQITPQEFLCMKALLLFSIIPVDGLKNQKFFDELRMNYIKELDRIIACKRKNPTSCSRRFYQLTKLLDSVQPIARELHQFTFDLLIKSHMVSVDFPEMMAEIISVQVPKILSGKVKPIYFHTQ
Assay: Live-cell imaging of AR puncta (LLPS) in LNCaP cells, AR-mEGFP
Format: cell-based
Settings: 10 μM compound, 1 nM DHT
Method: Cells were grown on 24-well glass bottom plate (Cellvis, P24-1.5H-N) and images were taken with the Leica TCS SP8 confocal microscopy system using a 100× oil objective (NA=1.4). Cells were imaged on a heated stage (37° C.) and supplemented with warmed (37° C.) humidified air. The microscope was enclosed in an incubation chamber heated to 37° C.
For compounds treatment assay, LNCaP cells were transfected with an expression vector for AR (AR or AR F877L/T878A)-mEGFP using steroid hormone-free and phenol red-free RPMI media for 24 hours before compound treatment. After 10 μM compounds treatment for 3 hour, LNCaP cells were added with 1 nM DHT. For ligand-independent AR V7-mEGFP expressing LNCaP cells, starvation step is skipped and compounds were added 12 hours after transfection. The final concentration of DMSO was 0.1%. Cells were subjected to microscopic observation every 30 mins after DHT/compounds were added.
Data was analyzed by images collected from 100 representative fields in each group. The spots quantification was performed based on the area and intensity of the spots through green (AR-mEGFP) channel. Fluorescent images were processed and assembled into figures using LAS X (Leica) and Fiji.
After 10 μM compounds treatment for 3 hour, LNCaP cells were added with 1 nM DHT. […]

CC(C)(c1ccc(C#Cc2cnc(NS(C)(=O)=O)nc2)cc1)c1cc(Cl)c(OCCCl)c(C#N)c1 [Compound 60, N-(5-((4-(2-(3-chloro-4-(2-chloroethoxy)-5-cyanophenyl)propan-2-yl)phenyl)ethynyl)pyrimidin-2-yl)methanesulfonamide]
puncta formation / LLPS of AR: could suppress the phase separation; also recorded: abolished the puncta formation
